Ten compounds from US20240246913A1, “2-CARBOXYL-INDOLE INHIBITORS OF METALLO-BETA-LACTAMASES” (Oxford University Innovation Limited, priority 2021, published 2024) can be followed below.

A short description of data set [1]: Plasma protein binding, equilibrium dialysis, mouse plasma. Format: in vitro ADME. The settings on record: pH 7.4, equilibrium dialysis (RED) 4 hours at 37° C., read-out: Plasma protein binding, fu, Mouse. As to the method: (§1) The fraction of unbound compound (fu) in plasma from human or other animal species was determined by equilibrium dialysis at 37° C. for 4 hours using the Rapid Equilibrium Dialysis (RED) device (ThermoFisher Scientific). The test compound at a concentration of 10 μM was added to plasma and dialyzed against isotonic phosphate buffer (67 mM, pH 7.4) over 4 hours at 37° C. After dialysis, compound concentrations in buffer and plasma were quantified by LC-MS/MS. In parallel the stability of the compound in plasma was determined by incubating drug-spiked plasma (10 μM) at 37° C. for 4 hours, meanwhile the control plasma sample was kept in the freezer. The concentration of the compound in both samples was quantified by LC-MS/MS (Waters Corp, Milford, MA, USA).

Another data set deals with VIM-1 (Pseudomonas aeruginosa, UniProt A0A0F7KYQ8). The data set is described as follows: MBL inhibition, FC-5 fluorescence assay, VIM-1. It counts as biochemical. Particulars: FC-5 cephalosporin substrate, ranges of obtained pIC50, read-out: pIC50 VIM-1 (converted). Summed up: (§2)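 Inhibition of B1 metallo-β-lactamases measured by fluorophore release on hydrolysis of the cephalosporin FC-5, following initial rates by fluorescence (ex 380/em 460 nm). Dose-response data, normalized, were fitted to a variable-slope log(inhibitor) model; four intra-plate replicates per concentration.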

A short description of data set [2]: Plasma protein binding, equilibrium dialysis, human plasma. Format: in vitro ADME. The settings on record: pH 7.4, equilibrium dialysis (RED) 4 hours at 37° C., read-out: Plasma protein binding, fu, Human. The protocol: as §1
(Equilibrium dialysis compares concentrations on both sides of a semipermeable membrane.)

Another data set has as its target VIM-2 (Escherichia coli, UniProt Q5U7L7). The data set is described as follows: MBL inhibition, FC-5 fluorescence assay, VIM-2. Format: biochemical. Particulars: FC-5 cephalosporin substrate, ranges of obtained pIC50, read-out: pIC50 VIM-2 (converted). Summed up:
as §2

A further data set has as its target IMP-1 (Serratia marcescens, UniProt P52699). The data set is described as follows: MBL inhibition, FC-5 fluorescence assay, IMP-1. Format: biochemical. Particulars: FC-5 cephalosporin substrate, fluorescence; ranges of obtained pIC50; read-out: pIC50 IMP-1 (converted). Summed up: as §2
The target in a further data set is NDM-1 (Klebsiella pneumoniae, UniProt C7C422). The data set is described as follows: MBL inhibition, FC-5 fluorescence assay, NDM-1. It counts as biochemical. Particulars: FC-5 cephalosporin substrate, fluorescence; ranges of obtained pIC50; read-out: pIC50 NDM-1 (converted). Summed up:
as §2

Data set [3] deals with Acinetobacter baumannii NDM-1. The data set is described as follows: Antibiotic susceptibility testing (MIC), AB NDM-1. Format: cell-based. Particulars: agar or broth dilution (CLSI/EUCAST). The protocol: (§3) Antibiotic susceptibility testing was performed using the agar or broth dilution method, in line with the Clinical and Laboratory Standards Institute (CLSI) and European Committee on Antimicrobial Susceptibility Testing (EUCAST) requirements.

A further data set relates to Escherichia coli NDM-7. The data set is described as follows: Antibiotic susceptibility testing (MIC), EC NDM-7. The settings on record: agar or broth dilution (CLSI/EUCAST). Format: cell-based. As to the method:
as §3
(In general: Broth dilution looks for growth in wells or tubes with falling amounts of substance.)

A further data set concerns Escherichia coli NDM-1. The data set is described as follows: Antibiotic susceptibility testing (MIC), EC NDM-1. Format: cell-based. Particulars: agar or broth dilution (CLSI/EUCAST). As to the method:
as §3

The nature of data set [4]: Metabolic stability in human hepatocytes. It counts as in vitro ADME. Particulars: cryopreserved human hepatocytes, 1 μM compound, 37° C., up to 90 min, read-out: Metabolic stability in hepatocytes, in vitro t1/2, Human. The protocol:
(§4) Metabolic stability assays were performed in cryopreserved human and mouse hepatocytes. The hepatocytes were thawed and added to “Thawing media”, and centrifuged to pellet the hepatocytes. The cell pellet was taken up in Williams medium E (Invitrogen A1217601), the number of cells was calculated and adjusted to 1.0×10^6 cells/mi. The incubation was carried out on a heater-shaker at […], in a 24-well Picoplate (round bottom, PerkinElmer), using an incubation volume of […]. Thus, to obtain a final compound concentration of 1 μM, 0.7 μl of the 1 mM compound stock solution was pipetted to the wells of the plate. Reaction was initiated by adding 700 μl of cell suspension. Samples were incubated at 37° C. for […] and a zero sample was taken, i.e. 100 μl sample was removed to a 96-well plate and the reaction was quenched by adding 100 μl of 100% MeCN containing 50 nM Warfarin as an internal control. Consecutive samples were taken at time-points 5 min, 15 min, 30 min, 60 min, and 90 min. After finishing the experiment, samples were centrifuged at 3000 rpm for 15 min and before analysis by LC-MS/MS (Waters Corp, Milford, MA, USA).

A short description of data set [5]: Metabolic stability in mouse hepatocytes. It counts as in vitro ADME. Particulars: cryopreserved mouse hepatocytes, 1 μM compound, 37° C., up to 90 min, read-out: Metabolic stability in hepatocytes, in vitro t1/2, Mouse. The protocol: as §4

Each structure is given as a SMILES string.

Chain of NDM-1 (C7C422 29-270, looked up, species assumed): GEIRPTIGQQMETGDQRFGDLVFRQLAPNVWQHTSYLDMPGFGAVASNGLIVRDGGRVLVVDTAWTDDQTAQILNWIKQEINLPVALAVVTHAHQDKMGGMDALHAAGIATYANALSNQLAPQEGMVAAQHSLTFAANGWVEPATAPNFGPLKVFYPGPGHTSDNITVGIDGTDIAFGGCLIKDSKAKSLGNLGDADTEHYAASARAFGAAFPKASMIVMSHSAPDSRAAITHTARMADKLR
Chain of IMP-1 (P52699 19-246, looked up, species assumed): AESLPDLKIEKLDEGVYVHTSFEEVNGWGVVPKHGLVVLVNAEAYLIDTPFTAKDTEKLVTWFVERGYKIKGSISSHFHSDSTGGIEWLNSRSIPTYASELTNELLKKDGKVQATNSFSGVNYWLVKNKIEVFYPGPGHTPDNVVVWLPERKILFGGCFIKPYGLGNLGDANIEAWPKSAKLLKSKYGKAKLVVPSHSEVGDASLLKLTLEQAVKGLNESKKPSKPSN

Regarding `CC(NS(C)(=O)=O)c1cccc2c(-c3cc(Cl)cc(Cl)c3)c(C(=O)O)[nH]c12` (centres unmarked) [IC-2, 3-(3,5-Dichlorophenyl)-7-(1-(methylsulfonamido)ethyl)-1H-indole-2-carboxylic acid], the fraction unbound at 4 h, 10 μM in [1] and in data set [2] was under 0.005 throughout. Moreover, the IC50 on VIM-1, on VIM-2, on IMP-1 and on NDM-1 was over 10 nM throughout.
Turning to `CC(c1cccc2c(-c3ccc(CS(C)(=O)=O)c(F)c3)c(C(=O)O)[nH]c12)N1C(=O)CN(CCCN)C1=O` (centres unmarked) [IC-13, 7-[1-[3-(3-Aminopropyl)-2,5-dioxo-imidazolidin-1-yl]ethyl]-3-[3-fluoro-4-(methylsulfonylmethyl)phenyl]-1H-indole-2-carboxylic acid], the values for the fraction unbound at 4 h, 10 μM in data set [1] and in [2] were 0.005 to 0.05 and 0.05 to 0.25, respectively. Besides, the IC50 was 1 to 10 nM on VIM-1, over 10 nM at VIM-2, over 10 nM at IMP-1 and under 0.1 nM at NDM-1.
Regarding `C[C@@H](c1cccc2c(-c3ccc(=O)[nH]c3)c(C(=O)O)[nH]c12)N1C[C@]2(C[C@@H](CN)C2)OC1=O` [IC-15, 7-((S)-1-((2S,4r)-2-(aminomethyl)-6-oxo-5-oxa-7-azaspiro[3.4]octan-7-yl)ethyl)-3-(6-oxo-1,6-dihydropyridin-3-yl)-1H-indole-2-carboxylic acid], the values for the fraction unbound at 4 h, 10 μM in data set [1] and in data set [2] were 0.005 to 0.05 and 0.05 to 0.25, respectively. Further, in data set [3], the “MIC values AB NDM-1” value is “C (C = MIC values > 8)”. Also, the “MIC values EC NDM-7” value against Escherichia coli NDM-7 is “A (A = MIC values ≤ 1)”. Further, in the data set on Escherichia coli NDM-1, the “MIC values EC NDM-1” value is “B (B MIC values 2 ÷ 8)”.
For the compound `C[C@@H](c1cccc2c(-c3ccc(CS(C)(=N)=O)c(F)c3)c(C(=O)O)[nH]c12)N1C[C@]2(C[C@@H](CN)C2)OC1=O` (stereo partly drawn) [IC-19, 7-((1S)-1-(2-(aminomethyl)-6-oxo-5-oxa-7-azaspiro[3.4]octan-7-yl)ethyl)-3-(3-fluoro-4-((S-methylsulfonimidoyl)methyl)phenyl)-1H-indole-2-carboxylic acid], the results for the fraction unbound at 4 h, 10 μM in data set [1] and in [2] were 0.05 to 0.25 and over 0.25, respectively. In addition, the IC50 on VIM-1 was 0.1 to 1 nM; at VIM-2, 0.1 to 1 nM; at IMP-1 it was over 10 nM; at NDM-1, under 0.1 nM. For the same compound, the “MIC values AB NDM-1” value in data set [3] was “B (B MIC values 2 ÷ 8)”. In the data set on Escherichia coli NDM-7, the “MIC values EC NDM-7” value is recorded as “A (A = MIC values ≤ 1)”. Moreover, the “MIC values EC NDM-1” value with Escherichia coli NDM-1 is “B (B MIC values 2 ÷ 8)”.
With `C[C@@H](c1cccc2c(-c3c(F)cc(NS(C)(=O)=O)cc3F)c(C(=O)O)[nH]c12)N1C[C@]2(C[C@@H](CN)C2)OC1=O` [IC-21, 7-((S)-1-((2S,4r)-2-(aminomethyl)-6-oxo-5-oxa-7-azaspiro[3.4]octan-7-yl)ethyl)-3-(2,6-difluoro-4-(methylsulfonamido)phenyl)-1H-indole-2-carboxylic acid], the fraction unbound at 4 h, 10 μM fell in the range of 0.005 to 0.05 in [1] and 0.05 to 0.25 in data set [2]. The IC50 at VIM-1 is over 10 nM; at VIM-2 it was 1 to 10 nM; on IMP-1 it was over 10 nM; at NDM-1 it was 1 to 10 nM. For the same compound, in data set [3], the “MIC values AB NDM-1” value is “C (C = MIC values > 8)”. The “MIC values EC NDM-7” value with Escherichia coli NDM-7 is “B (B MIC values 2 ÷ 8)”. Also, the “MIC values EC NDM-1” value with Escherichia coli NDM-1 is “C (C = MIC values > 8)”.
With `C[C@@H](c1cccc2c(-c3ccc4c(c3)CNC4=O)c(C(=O)O)[nH]c12)N1C[C@]2(C[C@@H](CN)C2)OC1=O` [IC-22, 7-((S)-1-((2R,4s)-2-(aminomethyl)-6-oxo-5-oxa-7-azaspiro[3.4]octan-7-yl)ethyl)-3-(1-oxoisoindolin-5-yl)-1H-indole-2-carboxylic acid], the fraction unbound at 4 h, 10 μM in data set [1] was in the range of 0.005 to 0.05; in data set [2], 0.05 to 0.25. Also, the IC50 was 1 to 10 nM on VIM-1, under 0.1 nM at VIM-2, over 10 nM on IMP-1 and 0.1 to 1 nM at NDM-1. Also, the “MIC values AB NDM-1” value in data set [3] is on record as “B (B MIC values 2 ÷ 8)”. Besides, the “MIC values EC NDM-7” value in the data set with Escherichia coli NDM-7 is reported as “A (A = MIC values ≤ 1)”. Also, the “MIC values EC NDM-1” value against Escherichia coli NDM-1 is listed as “A (A = MIC values ≤ 1)”.
For `C[C@@H](c1cccc2c(-c3ccc(NS(=O)(=O)C4COC4)c(F)c3)c(C(=O)O)[nH]c12)N1C[C@]2(C[C@@H](CN)C2)OC1=O` [IC-24, 7-((S)-1-((2S,4r)-2-(aminomethyl)-6-oxo-5-oxa-7-azaspiro[3.4]octan-7-yl)ethyl)-3-(3-fluoro-4-(oxetane-3-sulfonamido)phenyl)-1H-indole-2-carboxylic acid], the fraction unbound at 4 h, 10 μM in data set [1] and in data set [2] was 0.05 to 0.25 in each case. In addition, the IC50 was 1 to 10 nM on VIM-1, 0.1 to 1 nM at VIM-2, over 10 nM on IMP-1 and under 0.1 nM on NDM-1. In [3], the “MIC values AB NDM-1” value was “B (B MIC values 2 ÷ 8)”. For the same compound, in the data set with Escherichia coli NDM-7, the “MIC values EC NDM-7” value was “A (A = MIC values ≤ 1)”. In addition, the “MIC values EC NDM-1” value against Escherichia coli NDM-1 is “A (A = MIC values ≤ 1)”.
Turning to `C[C@@H](c1cccc2c(-c3c(F)cc(NS(C)(=O)=O)cc3F)c(C(=O)O)[nH]c12)n1cc(CN2CC(N)C2)oc1=O` [IC-51, 7-[(1S)-1-{5-[(3-Aminoazetidin-1-yl)methyl]-2-oxo-2,3-dihydro-1,3-oxazol-3-yl}ethyl]-3-(2,6-difluoro-4-methanesulfonamidophenyl)-1H-indole-2-carboxylic acid], the fraction unbound at 4 h, 10 μM in [1] fell in the range of 0.005 to 0.05; in [2], 0.05 to 0.25. The IC50 on VIM-1 is over 10 nM; on VIM-2, 1 to 10 nM; on IMP-1, over 10 nM; at NDM-1 it was 1 to 10 nM. Also, the “MIC values AB NDM-1” value in [3] is recorded as “C (C = MIC values > 8)”. The “MIC values EC NDM-7” value against Escherichia coli NDM-7 is reported as “B (B MIC values 2 ÷ 8)”. Moreover, in the data set with Escherichia coli NDM-1, the “MIC values EC NDM-1” value is reported as “C (C = MIC values > 8)”.
In the case of `C[C@@H](c1cccc2c(-c3ccc(CS(C)(=O)=O)c(F)c3)c(C(=O)O)[nH]c12)n1cc(CN2CC(C)(N)C2)oc1=O` [IC-68, (S)-7-(1-(5-((3-amino-3-methylazetidin-1-yl)methyl)-2-oxooxazol-3(2H)-yl)ethyl)-3-(3-fluoro-4-((methylsulfonyl)methyl)phenyl)-1H-indole-2-carboxylic acid], the IC50 on VIM-1 was 1 to 10 nM; at VIM-2 it was 0.1 to 1 nM; on IMP-1 it was over 10 nM; at NDM-1, under 0.1 nM. Also, the “MIC values AB NDM-1” value in data set [3] is recorded as “B (B MIC values 2 ÷ 8)”. Also, the half-life at 1 μM in data set [4] and in data set [5] was over 6.67 h in each case. The “MIC values EC NDM-7” value with Escherichia coli NDM-7 was “A (A = MIC values ≤ 1)”. In addition, the “MIC values EC NDM-1” value in the data set on Escherichia coli NDM-1 is reported as “A (A = MIC values ≤ 1)”.
Take `CC(OCC1CC[N+](C)(C)CC1)c1cccc2c(-c3ccc(CS(C)(=O)=O)c(F)c3)c(C(=O)[O-])[nH]c12` (centres unmarked) [IC-90, 7-(1-((1,1-Dimethylpiperidin-1-ium-4-yl)methoxy)ethyl)-3-(3-fluoro-4-((methylsulfonyl)methyl)phenyl)-1H-indole-2-carboxylate]: the fraction unbound at 4 h, 10 μM in data set [1] is 0.05 to 0.25; in data set [2], over 0.25. Besides, the IC50 on VIM-1 is 1 to 10 nM; on VIM-2 it was 1 to 10 nM; at IMP-1, over 10 nM; at NDM-1, 1 to 10 nM.
